# Test results: publication PMC8779631, “Binding Properties of Odorant-Binding Protein 4 of Tirathaba rufivena to Areca catechu Volatiles” (Plants, 2022)
# What was measured:
# TrufOBP4 [1] = test: Fluorescence competitive binding assay (displacement of 1-NPN); set-up: species or system Tirathaba rufivena; details: 2 μM protein, 50 mM Tris-HCl pH 7.4; for Ki: Ki = IC50/(1 + [1-NPN]/K1-NPN); for IC50: ligand concentration displacing 50% of 1-NPN
# Procedure: (§1) The binding ability of purified recombinant OBPs was evaluated with an F-7000 fluorescence spectrometer (Hitachi, Tokyo, Japan). The fluorescence spectra were recorded between 360 and 650 nm. N-Phenyl-1-naphthylamine (1-NPN) was selected as the fluorescent reporter and dissolved in chromatographic methanol at a concentration of 1 mM. The purified TrufOBP4 was dissolved in 50 mM Tris-HCl (pH 7.4) at a final concentration of 2 μM. The data for the 1-NPN-TrufOBP4 complex formation were obtained by titration of 2 μM protein with increasing concentrations (2 to 20 μM) of 1-NPN. The dissociation constant of 1-NPN (K1-NPN) was calculated using Prism 8 (GraphPad Software, San Diego, USA). To evaluate the binding ability of TrufOBP4 with volatiles, 1-NPN was replaced with different odor compounds from the TrufOBP4/1-NPN complex. The odor ligands were dissolved in chromatographic methanol at a concentration of 1 mM and added as aliquots to the protein solution. The spectral results were obtained, and the dissociation constants of the competitors were calculated with the formula: Ki = IC50/(1 + [1-NPN]/K1-NPN), where 1-NPN represents the free concentration of 1-NPN, and IC50 represents the ligand concentration displacing 50% of the fluorescent reporter.
# Holotrichia oblita = test system: Holotrichia oblita; set-up: method as in earlier work; details: cited from earlier work
# Rhyzopertha dominica = test system: Rhyzopertha dominica; set-up: method as in earlier work; details: cited from earlier work
# Tribolium castaneum = test system: Tribolium castaneum; set-up: method as in earlier work; details: cited from earlier work
# Hyphantria cunea = test system: Hyphantria cunea; set-up: method as in PMID 32547409; details: stimulation with the compound; cited from earlier work
# AipsGOBP2 = test system: AipsGOBP2; set-up: method as in PMID 29778539, PMID 29543772; details: cited from earlier work
# EoblGOBP2 = test system: EoblGOBP2; set-up: method as in PMID 29778539, PMID 29543772; details: cited from earlier work
# PregOBP56a = test system: PregOBP56a; set-up: method as in PMID 23326317; details: cited from earlier work
# MbraPBP1 = test system: MbraPBP1; set-up: method as in PMID 11274212; details: cited from earlier work
# LsatOBP1 = test system: LsatOBP1; set-up: method as in PMID 11274212; details: cited from earlier work
# TrufOBP4 [2] = test: Binding of fluorescent reporter 1-NPN (titration, Scatchard plot); set-up: species or system Tirathaba rufivena; details: 2 μM protein titrated with 2 to 20 μM 1-NPN; read-out: K1-NPN (dissociation constant of 1-NPN)
# Procedure: as §1
Structure (SMILES),Ki (TrufOBP4 [1]),IC50 (TrufOBP4 [1]),other results
CC(=O)OCCC(C)C [Isoanyl acetate],21 µM,24.1 µM,–
CCCCOC(=O)c1ccccc1C(=O)OCCCC [Dibutyl phthalate],4.61 µM,5.29 µM,effect on behavior (Holotrichia oblita): attractive effect; effect on behavior (Rhyzopertha dominica): repellent; effect on behavior (Tribolium castaneum): repellent; mating rates (Hyphantria cunea): significantly increased; binding affinity (AipsGOBP2): outstanding binding affinity; binding affinity (EoblGOBP2): outstanding binding affinity
CCCCCCCC/C=C\CCCCCCCC(=O)O [oleic],–,–,binding affinity (PregOBP56a): high binding affinity
C=C(C)[C@H]1CC=C(C)CC1 [Cinene],> 50 µM,> 50 µM,–
CC12CCC(CC1)C(C)(C)O2 [Cineole],> 50 µM,> 50 µM,–
C=CC(C)(O)CCC=C(C)C (stereo not drawn) [Linalol],> 50 µM,> 50 µM,–
CCCCC/C=C\C/C=C\CCCCCCCC(=O)O [linoleic],–,–,binding affinity (PregOBP56a): high binding affinity
CCCCCCCCCCCCCCCC(=O)O [Palmitic acid],5.28 µM,6.06 µM,binding (MbraPBP1): bind well; binding (LsatOBP1): bind well; binding affinity (PregOBP56a): high binding affinity
COC(=O)c1ccccc1O [Methyl salicylate],> 50 µM,> 50 µM,–
C=C1CCC2CC1C2(C)C (stereo not drawn) [β-Pinene],29 µM,33.3 µM,–
C=CC(=C)CCC=C(C)C [Myrcene],17.3 µM,19.8 µM,–
C=C(C)[C@H]1CC=C(C)CC1 [(R)-(+)-limonene],22.1 µM,25.3 µM,–
CC1=CCC2C(C1)C2(C)C (stereo not drawn) [3-Carene],19.5 µM,22.4 µM,–
"c1ccc(Nc2cccc3ccccc23)cc1 [1-NPN, N-Phenyl-1-naphthylamine]",–,–,Kd (TrufOBP4 [2]): 6.79 µM
CCC=CCCOC(C)=O [3-Hexenyl acetate],40.6 µM,46.6 µM,–
CCCCC(CC)CO (stereo not drawn) [2-Ethylhexanol],21 µM,24.1 µM,–
C=C(C)[C@@H]1CC=C(C)CC1 [(S)-(−)-Limonene],29.1 µM,33.4 µM,–
CCC(C)C(=O)OCCC(C)C (stereo not drawn) [3-Methylbutyl 2-methylbutanoate],45.8 µM,> 50 µM,–
CCCCCCOC(C)=O [Hexyl acetate],> 50 µM,> 50 µM,–
CCCCC(CC)COC(=O)C=Cc1ccc(OC)cc1 (stereo not drawn) [Octyl methoxycinnamate],1.16 µM,1.33 µM,–
C=Cc1ccccc1 [Styrene],36.2 µM,41.5 µM,–
CCCCCCCCCCCCCC(=O)O [Myristic acid],3.52 µM,4.04 µM,–
CCCCCCCCCCCCCCCCCC(=O)O [stearic],–,–,binding affinity (PregOBP56a): high binding affinity
